Data: patent US9192602B2, “Indication of anthra[2,1,c][1,2,5]thiadiazole-6,11-dione compound in alleviating pain” (NATIONAL CENTRAL UNIVERSITY, priority 2014, dated 2015)

Legend:
CD-1 mice [1] = assay: Nociceptive pain: acute pain induced by acid solution, von Frey mechanical hyperalgesia test; format: in vivo
Experimental: Anthra[2,1-c][1,2,5]thiadiazole-6,11-dione (NSC745885, B1) was intraplantarly injected into the right hind paws of 8 to 12-week-old CD-1 mice. 5 minutes after the injection, 25 μL of pH 5.0 acid solution was intraplantarly injected into each of the mice. About 60 minutes later, the mice were directly tested with the hypersensitivity to mechanical stimuli using von Frey filaments (Touch-Test North Coast Medical, Inc., Margan Hill, Calif.). The control group was conducted under the same conditions except it was treated with a compound-free saline. […]
(§1) 2.2 μg/kg of the compound was administered to the mice by intraplantar injection about 5 minutes prior to the injection of the acid solution. An hour after the injection of the acid, the hypersensitivity of the mice to mechanical stimuli was measured using von Frey filaments (Touch-Test North Coast Medical, Inc., Margan Hill, Calif.). […] 60 minutes after the mice were administered with the compound, the mechanical hyperalgesia was assessed through the measurement of paw withdrawal frequencies by a sequential series of von Frey filaments of weights 0.6, 1.0, 1.4, 2.0 and 4.0 g applied perpendicularly to the plantar surface of the paw. […] The occurrence of paw withdrawal resulting from the stimulation or removing the stimulation for each trial was quantified as a percentage response frequency for each monofilament. […]

CD-1 mice [2] = assay: Neuropathic pain: chronic constriction injury (CCI) of the sciatic nerve, von Frey mechanical hyperalgesia test; format: in vivo
Excerpt: The assessment of the effectiveness of the compound for alleviating neuropathic pain used the animal model of chronic constriction injury (CCI) of the sciatic nerve, which was established by Bennett and Xie (1988). After the surgery, the mice developed long-lasting hypersensitivity to mechanical stimuli (chronic mechanical hyperalgesia) even being lightly touched. The mechanical hyperalgesia test was used to evaluate the analgesic effect of the compound.
The mice, after a week following the ligation surgery, were intraplantarly injected with a series of different dosages of the compound, 0.22, 2.2, 22 μg/kg or the mice were injected with 2.2 μg/kg of compound intrathecally, or with 44 μg/kg of the compound intraperitoneally. The hypersensitivity to mechanical stimuli was measured using von Frey filaments at 60 minutes after the injection. The mice injected with saline following surgery were the control group and the other mice injected with gabapentin following surgery were the positive control group.
2.2 μg/kg of the compound was administered to the mice by intraplantar injection about 5 minutes prior to the injection of the acid solution. An hour after the injection of the acid, the hypersensitivity of the mice to mechanical stimuli was measured using von Frey filaments (Touch-Test North Coast Medical, Inc., Margan Hill, Calif.). The mice were placed in transparent plastic chambers (10×8×10 cm) on a metal mesh floor at least 30 minutes per day for 2 days to acclimatize them to the testing room prior to the test. 60 minutes after the mice were administered with the compound, the mechanical hyperalgesia was assessed through the measurement of paw withdrawal frequencies by a sequential series of von Frey filaments of weights 0.6, 1.0, 1.4, 2.0 and 4.0 g applied perpendicularly to the plantar surface of the paw. The paw was briefly stimulated with force sufficient to slightly bend the filaments and a single trial consisted of repeated applications of the von Frey filaments five times, each application lasting for about 5 seconds. The occurrence of paw withdrawal resulting from the stimulation or removing the stimulation for each trial was quantified as a percentage response frequency for each monofilament. When the frequency was more than 50%, the weight of the von Frey filaments was determined as the paw withdrawal threshold (PWT). To make sure all the mice were under normal physical conditions, all housing conditions complied with general feeding standards, and the temperature and illumination were maintained in a suitable range.
According to the method described by Bennett and Xie, Pain, 1988, 33, 87-107, 8 to 12-week-old CD-1 mice were subjected to chronic constriction injury (CCI) of the sciatic nerve, which is an animal model inducing chronic neuropathic pain. To anesthetize the mice, each of the mice was injected with 240 mg/kg of 2,2,2-tribromoethanol (Avertin). Then three ligatures were loosely tied around the sciatic nerve of the mouse with chromic gut. The surgical procedure for the Sham (non ligation) control group was identical to that mentioned above except that the sciatic nerves were not ligated. A week after the mice in the experimental (CCI+compound) group had chronic constriction injury of sciatic nerves, the compound was intraplantarly, intrathecally, or intraperitoneally injected into the mice. 60 minutes after the injection, the mice were directly subjected to the hypersensitivity test to mechanical stimuli. The mice under the surgery treated with saline were the CCI group; the mice treated with gabapentin were the positive control (CCI+Gabapentin) group.

mice = assay: Inflammatory pain: chronic inflammatory pain induced by Complete Freund's Adjuvant (CFA), von Frey test; format: in vivo; conditions: 60 min after CFA
Experimental: When 50% CFA was intraplantarly injected into the mouse, paw edema and chronic mechanical hyperalgesia were developed in the tested mice. Different dosages of the anthra[2,1-c][1,2,5]thiadiazole-6,11-dione compound, 0.22, 2.2, 22 μg/kg were intraplantarly injected into mouse hindpaw, followed by 50% CFA injection. At 60 minutes after the CFA injection, the pain sensitivity of the mice was measured by mechanical stimulation using von Frey filaments.
as §1, with “monofilament. When the frequency was more than 50%, the weight of the von Frey filaments was determined as the paw withdrawal threshold (PWT).” for “monofilament.”

human cancer cell lines = conditions: NCI panel (leukemia, non-small cell lung cancer, colon cancer, etc.); Taiwan Patent application 097112087; cited from earlier work

SMILES	paw withdrawal threshold (PWT) (CD-1 mice [1]; 2.2 μg/kg intraplantar, 5 min before 25 μL pH 5.0 acid solution, measured about 60 min later, acid only 1.1±0.065 g, control 4.0±0 g) [g]	paw withdrawal threshold (PWT) (CD-1 mice [1]; sole injection of the compound without the acid solution, did not induce pain) [g]	development of tolerance to the compound (CD-1 mice [2]; 2.2 μg/kg intraplantar once every week for three weeks)	paw withdrawal threshold (PWT) (CD-1 mice [2]; 2.2 μg/kg intraplantar once every week for three weeks, first week) [g]	paw withdrawal threshold (PWT) (CD-1 mice [2]; 2.2 μg/kg intraplantar once every week for three weeks, second week) [g]	paw withdrawal threshold (PWT) (CD-1 mice [2]; 2.2 μg/kg intraplantar once every week for three weeks, third week) [g]	paw withdrawal threshold (PWT) (CD-1 mice [2]; 2.2 μg/kg intraplantar, one week after CCI surgery, 60 min after injection, CCI only 0.9±0.23 g, control 3.6±0.29 g) [g]	paw withdrawal threshold (PWT) (CD-1 mice [2]; 2.2 μg/kg intrathecal, one week after CCI surgery, 60 min after injection) [g]	paw withdrawal threshold (PWT) (CD-1 mice [2]; 22 μg/kg intraplantar, one week after CCI surgery, 60 min after injection) [g]	inhibition of mechanical hyperalgesia induced by CCI of the sciatic nerve (CD-1 mice [2]; 44 μg/kg intraperitoneal)	paw withdrawal threshold (PWT) (mice; 2.2 μg/kg intraplantar 5 min before 50% CFA, CFA only 0.4±0.033 g, control 3.6±0.202 g) [g]	paw withdrawal threshold (PWT) (mice; 22 μg/kg intraplantar 5 min before 50% CFA) [g]	anti-proliferative activity against human cancer cell lines (human cancer cell lines)	dosage required to inhibit chronic mechanical hyperalgesia caused by CCI (CD-1 mice [2]; intraperitoneal injection)
O=C1c2ccccc2C(=O)c2c1ccc1nsnc21 [B1, Anthra[2,1-c][1,2,5]thiadiazole-6,11-dione]	3.3 ± 0.67	4.0 ± 0	no obvious indication that the mice developed tolerance	2.5 ± 0.8	2.0 ± 0	2.7 ± 0.67	2.5 ± 0.8	4.0	4.0 ± 0.0	completely inhibited mechanical hyperalgesia	1.6 ± 0.15	3.0 ± 0.45	shows anti-proliferative activity against human cancer cell lines	–
NCC1(CC(=O)O)CCCCC1 [gabapentin, reference compound]	–	–	–	–	–	–	–	–	–	–	–	–	–	at least 15,000 μg/kg
